Reference: patent US9868695B2 (priority 2014, dated 2018)
Where two headings read alike, the source gives them in different places.

Assay: Oral and IV pharmacokinetic studies
Type: in vivo
Settings: BALB/c mice; for bioavailability: PO 10 mg/Kg vs IV 1 mg/Kg
Method: Oral and intravenous (IV) pharmacokinetic studies of compound 1g were carried out in BALB/c male mice (Jubilant Biosys Limited, Bangalore) of age 4-6 weeks, by administering 1g orally and IV at dose of 10 mg/kg for oral and 1 mg/kg for IV. Plasma samples were collected at appropriate time points between the range of 0 hours to 24 hours and analyzed by LC-MS-MS. Mean plasma concentration calculated and data were further analyzed for PK parameters using WinNonlin 5.3 software package.

[1] = male, mouse, plasma, IV 1 mg/Kg
[2] = male, mouse, plasma, PO 10 mg/Kg

Question: Which Tlast (IV 1 mg/Kg) does the source give for `COc1cc2c(c(OC)c1OC)-c1ccc(Nc3ccc(Cl)c(C(F)(F)F)c3)c(=O)cc1[C@@H](NC(C)=O)CC2` [Compound 1g, N-[(7S)-1,2,3-Trimethoxy-9-oxo-10-[3-(trifluoromethyl)-4-chloro-phenylamino]-5,6,7,9-tetrahydrobenzo[a]heptalen-7-yl]acetamide] here?
Answer: 8.00 h

Question: What about the CL (IV 1 mg/Kg, 1 mg/kg) of the same compound?
Answer: 6.19 mL/min/kg

Question: And the bioavailability?
Answer: 64.4 % F

Question: What about the clearance (male, BALB/c, mouse, plasma, iv, 1 mg/kg, IV 1 mg/Kg) of the same compound?
Answer: ~6 mL/min/kg

Question: And the Vd (male, BALB/c, mouse, plasma, iv, 1 mg/kg, IV 1 mg/Kg, read-out: Vd)?
Answer: 1.49 L/kg

Question: What about the Vd (male, BALB/c, mouse, plasma, iv, 1 mg/kg, IV 1 mg/Kg, read-out: Vdss) of the same compound?
Answer: 1.47 L/kg

Question: And the AUC(0-inf) [1]?
Answer: 2690 ng·h/mL

Question: And the AUC(0-t) [1]?
Answer: 2340 ng·h/mL

Question: And the Cmax [1]?
Answer: 698 ng/mL

Question: What about the C0 (male, mouse, plasma, IV 1 mg/Kg, extrapolated, calculated manually using initial 3 time points) of the same compound?
Answer: 819 ng/mL

Question: And the half-life (male, mouse, plasma, IV 1 mg/Kg, read-out: t1/2, β (converted))?
Answer: 2.78 h

Question: What about the bioavailability (male, mouse, plasma, read-out: absolute oral bioavailability) of the same compound?
Answer: 64%

Question: And the AUC(0-inf) [2]?
Answer: 17300 ng·h/mL

Question: And the AUC(0-t) [2]?
Answer: 16900 ng·h/mL

Question: And the Cmax [2]?
Answer: 3030 ng/mL

Question: What about the Tmax [2] of the same compound?
Answer: 2 h

Question: And the half-life (male, mouse, plasma, PO 10 mg/Kg, read-out: t1/2,β (converted))?
Answer: 5.43 h
